“And” between values parts separate entries of the source, which are not always exact repeats. Identical values can stand only once.
Columns and labels:
S. aureus [1] = assay: Primary stage MIC measurement of antibiotic alone (OD 600 nm growth curves, 18 h); format: cell-based, Staphylococcus aureus
From the text: The following day, the turbidity of the actively-growing broth culture was adjusted with Calcium-adjusted Mueller Hinton broth II (MHBII) to be equivalent to that of a 0.5 McFarland standard (1×10^8 CFU/ml). The broth culture was maintained under ambient conditions prior to use.
The method used in this stage was based on the classic Minimum Inhibitory Concentration (MIC) measurements, as described by the Clinical and Laboratory Standards Institute (CLSI) document M07-A9: “Method for Dilution Antimicrobial Susceptibility Test for Bacteria that Grow Aerobically”. While classic MIC measurements require visual inspection of plates for bacterial growth after 18 hours, growth was monitored in the present study according to optical density (OD) at 600 nm, using an ELISA reader (MultiSkan™ FC ELISA reader, Thermo Fisher Scientific, Massachusetts, USA), thereby obtaining bacterial growth curves for tested antibiotic solutions.
Columns 1 and 3-12: 100 μl of MHBII alone was added to each well.
[…]: 200 μl of a solution of antibiotic in MHBII at the highest concentration to be tested was added to each well.
A series of 2-fold dilutions was performed, wherein 100 μl of solution of antibiotic was withdrawn from each well of column 2, transferred to the corresponding well of column 3, and mixed.
The dilution was then repeated by transfer from column 3 to column 4, and so on, until column 11, when the 100 μl of solution of antibiotic withdrawn from each well of column 11 was discarded.
The 5×10^6 CFU/ml stock suspension which had been prepared in advance was transferred into a reservoir and 10 μl of the stock suspension were added into each well of columns 2-11 using a multichannel pipette to obtain a final 5×10^5 CFU/ml suspension.
The plate was then incubated at 37° C. with shaking in the ELISA reader and the optical density at 600 nm was read every 20 minutes for a total of 18 hours.
The average OD reading obtained for each antibiotic concentration was calculated and plotted against time to obtain a growth curve.
The MIC was determined as the first antibiotic concentration at which […] by the end of the 18-hour period.

S. aureus [2] = assay: Tertiary stage: antimicrobial activity (ET50/MIC) of extract of degradation products of antibiotic-impregnated ORC pads, single or combination; format: cell-based, Staphylococcus aureus; conditions: for MIC times higher than that of the primary stage MIC: antibiotic impregnated onto ORC pad; for Fold reduction in MIC concentration: primary MIC (antibiotic alone) versus antibiotic-impregnated ORC (tertiary) MIC
Protocol: Solutions comprising different concentrations of antibiotics to be tested were prepared in methanol.
Blank ORC pads of dimensions 1×1.5 inch, weighing between 65-75 mg (70 mg on average), in duplicate, were immersed in the antibiotic solutions and then dried using a rotary evaporator to provide extract of degradation products of antibiotic-impregnated ORC pads.
15 ml test tubes containing 3 ml of sterile PBS were prepared, and the antibiotic-impregnated ORC pads were immersed in the tubes and incubated for 3-5 hours at ambient temperature on a roller mixer (Stuart, Cat#SRT9D).
Each of the above extracts was filtered out using a sterile 0.8/0.2 μm syringe filter into a clean 15 ml tube. These extraction fluids are referred to herein as “extract of degradation products of antibiotic-impregnated ORC”.
Briefly, ORC pads weighing on average 70 mg each were impregnated with the selected antibiotic. Extracts of degradation products of antibiotic-impregnated ORC were prepared by immersion and incubation in 3 ml of sterile PBS for 3 hours at ambient temperature. The ORC degeneration products were then removed, and any remaining ORC particles were filtered out using a […] syringe filter. This extraction fluid was then diluted 10-fold into Muller Hinton growth medium containing bacteria. Bacterial growth was monitored every 20 min for a total of 18 hours according to optical density (OD) at 600 nm, using an ELISA reader.
Since the study included many possible combinations of two antibiotics, each with their own different concentration range, a matrix of possible antibiotic concentrations was designed, and degradation products of ORC were prepared accordingly (see Table 10). Since all the possible combinations could not be fitted into one 96 well plate, a series of MIC experiments were carried out.

Structure (SMILES): CO[C@H]1/C=C/O[C@@]2(C)Oc3c(C)c(O)c4c(O)c(c(/C=N/N5CCN(C)CC5)c(O)c4c3C2=O)NC(=O)/C(C)=C\C=C\[C@H](C)[C@H](O)[C@@H](C)[C@@H](O)[C@@H](C)[C@H](OC(C)=O)[C@@H]1C [Rifampin, rifampin]
- MIC as single antibiotics in the absence of ORC (first stage MIC results) (S. aureus [1]): 0.015 µg/mL
- Change of antimicrobial activity when impregnated onto the ORC pad versus first stage MIC (S. aureus [2]): impaired
- MIC times higher than that of the primary stage MIC (S. aureus [2]): 50 times
- MIC times higher than that of the primary stage MIC (S. aureus [2]; listed as rifampin): about 50 times
- ET50 (S. aureus [2]; impregnated ORC extract, minocycline 0.00 ng/ml, rifampin 73.29 ng/ml): 406.8 min
- ET50 (S. aureus [2]; impregnated ORC extract, minocycline 0.00 ng/ml, rifampin 146.58 ng/ml): 442.3 min
- ET50 (S. aureus [2]; impregnated ORC extract, minocycline 0.00 ng/ml, rifampin 293.16 ng/ml): 450.4 min
- ET50 (S. aureus [2]; impregnated ORC extract, minocycline 0.00 ng/ml, rifampin 366.45 ng/ml): 418.1 min
- Fold reduction in MIC concentration (S. aureus [2]): 0.019
- ET50 (S. aureus [2]; rifampin-impregnated ORC extract, impregnation fluid 50 μg/ml, 0.015705 % on ORC, 366.45 ng/ml in MIC): 643 min
- ET50 (S. aureus [2]; rifampin-impregnated ORC extract, impregnation fluid 100 μg/ml, 0.03141 % on ORC, 732.9 ng/ml in MIC): 1396 min
- ET50 (S. aureus [2]; rifampin-impregnated ORC extract, impregnation fluid 150 μg/ml, 0.047115 % on ORC, 1099.35 ng/ml in MIC): >2000 min
- ET50 (S. aureus [2]; rifampin-impregnated ORC extract, impregnation fluid 200 μg/ml, 0.06282 % on ORC, 1465.8 ng/ml in MIC): >2000 min

Structure (SMILES): CN(C)c1ccc(O)c2c1C[C@H]1C[C@H]3[C@H](N(C)C)C(O)=C(C(N)=O)C(=O)[C@@]3(O)C(O)=C1C2=O [Minocycline, minocycline]
- MIC as single antibiotics in the absence of ORC (first stage MIC results) (S. aureus [1]): 0.25 µg/mL
- MIC fold lower in the presence of degradation products of ORC than in their absence (S. aureus [2]): at least 5.8 fold
- Fold reduction of the MIC for minocycline with at least one more antibiotic impregnated on ORC, versus minocycline alone (S. aureus [2]; combination with rifampin or clindamycin, with ORC degradation products): 200 fold
- ET50 (S. aureus [2]; impregnated ORC extract, minocycline 1.26 ng/ml, clindamycin 0.00 ng/ml): 637.6 min
- ET50 (S. aureus [2]; impregnated ORC extract, minocycline 1.26 ng/ml, rifampin 0.00 ng/ml): 585.4 min
- ET50 (S. aureus [2]; impregnated ORC extract, minocycline 2.52 ng/ml, clindamycin 0.00 ng/ml): 1072 min
- ET50 (S. aureus [2]; impregnated ORC extract, minocycline 2.52 ng/ml, rifampin 0.00 ng/ml): 799.9 min
- ET50 (S. aureus [2]; impregnated ORC extract, minocycline 5.04 ng/ml, clindamycin 0.00 ng/ml): >2000 min
- ET50 (S. aureus [2]; impregnated ORC extract, minocycline 5.04 ng/ml, rifampin 0.00 ng/ml): >2000 min
- ET50 (S. aureus [2]; impregnated ORC extract, minocycline 6.30 ng/ml, clindamycin 0.00 ng/ml): >2000 min
- ET50 (S. aureus [2]; impregnated ORC extract, minocycline 6.30 ng/ml, rifampin 0.00 ng/ml): >2000 min
- ET50 (S. aureus [2]; minocycline-impregnated ORC extract, impregnation fluid 5 μg/ml, 0.00027 % on ORC, 6.30 ng/ml in MIC): 1145 min
- ET50 (S. aureus [2]; minocycline-impregnated ORC extract, impregnation fluid 10 μg/ml, 0.00054 % on ORC, 12.60 ng/ml in MIC): 2000 min
- ET50 (S. aureus [2]; minocycline-impregnated ORC extract, impregnation fluid 20 μg/ml, 0.00108 % on ORC, 25.20 ng/ml in MIC): >2000 min
- ET50 (S. aureus [2]; minocycline-impregnated ORC extract, impregnation fluid 40 μg/ml, 0.00216 % on ORC, 50.40 ng/ml in MIC): >2000 min
- Fold reduction in MIC concentration (S. aureus [2]): 20 and 19.85
